Laboratory results as given in US4710498A, “Pyridyloxy derivatives” (Ikeda Mohando Co., Ltd., priority 1984, dated 1987).
Like-named read-outs stand apart in the source and are kept apart here.

Assays:
[1] = system: Gastric Acid Secretion Induced by Histamine; assay: Inhibition effect on gastric acid secretion induced by histamine in pylorus ligated rat (subcutaneous); format: in vivo, male Wistar rat
Description: (§1) A male Wistar rat having a body weight of about 160 g and which had not fed for 24 hours was anesthetized by an intraperitoneal dose of 1.2 g/kg of urethane. After ligating of pylorus and esophagus, the gaster anterior was incised and fitting with a double polyethylene cannula. The wall of the stomach was rinsed with 5 ml of saline at 30 minutes intervals, and the quantity of gastric acid contained in each rinsing solution was measured by titration.
The basal acid secretion was initially measured three times, and then 0.2 mg/kg of each of the compounds of this invention was administered subcutaneously and 3 mg/kg of histamine was administered subcutaneously after the lapse of an additional 30 minutes.
(§2) The quantity of gastric acid secreted after the operation was measured continuously for 3 hours. Within that measurement interval, three time points at which the increase in acid secretion reached a maximum level were selected, and the average quantity of gastric acid secreted at those time points was taken as the increase in acid secretion, which was compared with the increase in acid secretion of the control group to calculate the percent inhibition for secretion of gastric acid (Table 1). [formula] (The result was shown as the average value of five runs.)

[2] = target: T1, Histamine H2 -Receptor (Cavia porcellus, UniProt P47747); assay: biochemical; design: species or system male Hartley guinea pig; conditions: for Kb: negative logarithm of molar concentration, isolated guinea pig atrium, read-out: Antagonistic Action against Histamine H2 -Receptor (pA2) Determined by Using Atrium isolated from Guinea Pig (converted)
T1 construct: from tissue; host or cells: isolated right atrium of male Hartley guinea pig
Description: A male Hartley guinea pig having a body weight of about 400 g was killed by cervical dislocation, and the atrium thereof was isolated and was suspended in an organ bath containing […] of a modified Ringer solution and subjected to a tension of 1 g. The number of heart beats under such condition was recorded using a polygraph.
Initially, from 1×10^-7 mol to 3×10^-4 mol of histamine was allowed to act accumulatively to depict the curve of the dosage-reaction relationship. Likewise, the curve of the dosage of histamine-reaction relationship was depicted in the presence of 5×10^-7 mol to 1×10^-6 mol of the test sample which was injected 3 minutes before. The negative logarithm (pA2) of the molar concentration of the test sample required for moving the curve obtained by single administration of histamine parallel to the right side by a two-times concentration was calculated.

[3] = system: Gastric Acid Secretion Induced by Histamine; assay: Inhibitory effect of intraduodenally administered compounds on gastric acid secretion induced by histamine in rat; format: in vivo, male Wistar rat; conditions: for ED50: Rattus norvegicus; for Efficacy Ratio relative to Cimetidine (Cimetidine = 1): rat, in vivo
Description: The test was conducted by an improved method based on that reported by Watanabe et al., in "Pharmacometrics", Vol. 3, No. (1), pages 7 to 14 (1969).
as §1, §2

[4] = Rattus norvegicus, 0.2 mg/kg SC, histamine 3 mg/kg SC, average of five runs, read-out: Secretion of Gastric Acid in Rat, Inhibition Rate (%)
[5] = intraduodenal, 30 minutes before histamine SC, second series (Table 2-2), read-out: Median effective dose (ED50) inhibiting Gastric Acid Section (95% Reliability Limit)
[6] = intraduodenal, 30 minutes before histamine SC, first series (Table 2-1), read-out: Median effective dose (ED50) inhibiting Gastric Acid Section (95% Reliability Limit)

T1 sequence (P47747 whole entry): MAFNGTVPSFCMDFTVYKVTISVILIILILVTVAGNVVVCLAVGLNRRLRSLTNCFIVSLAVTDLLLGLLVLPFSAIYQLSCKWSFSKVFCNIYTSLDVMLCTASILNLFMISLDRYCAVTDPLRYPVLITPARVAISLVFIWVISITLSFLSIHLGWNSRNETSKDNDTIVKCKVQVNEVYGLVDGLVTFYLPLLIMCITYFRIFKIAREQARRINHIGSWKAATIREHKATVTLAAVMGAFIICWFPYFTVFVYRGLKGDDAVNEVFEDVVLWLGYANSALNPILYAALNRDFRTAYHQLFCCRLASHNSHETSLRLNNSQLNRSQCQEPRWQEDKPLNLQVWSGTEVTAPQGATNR

| Compound | Kb [2] [nM] | inhibition in vivo at 0.2 mg/kg [1, 4] [%] | Efficacy Ratio relative to Cimetidine (Cimetidine = 1) [3] | further results |
| --- | --- | --- | --- | --- |
| CN(C)Cc1c[nH]c(NC/C=C\COc2cc(CN3CCCCC3)ccn2)nc1=O [Ex. 21, 5-dimethylaminomethyl-2-[4-<4-(1-piperidinomethyl)pyridyl-2-oxy>-cis-2-butenylamino]-1H-pyrimidin-4-one] | 316 | 65 |  |  |
| CNc1n[s+]([O-])nc1NC/C=C/COc1cc(CN2CCCCC2)ccn1 (stereo not drawn) [Ex. 10, 3-methylamino-4-[4-<4-(1-piperidinomethyl)pyridyl-2-oxy>-trans-2-butenylamino]-1,2,5-thiadiazole-1-oxide] | 182 | 52 |  |  |
| Nc1cc(NC/C=C\COc2cccc(CN3CCCCC3)n2)[nH]c(=O)n1 [Ex. 47, 4-amino-6-[4-<6-(1-piperidinomethyl)pyridyl-2-oxy>-cis-2-butenylamino]-1H-pyrimidin-2-one] |  | 40 |  |  |
| CNc1c(NC/C=C\COc2cc(CN(C)C)ccn2)c(=O)c1=O [Ex. 4, 1-methylamino-2-<4-(4-dimethylaminomethylpyridyl-2-oxy)-cis-2-butenylamino>-1-cyclobuten-3,4-dione] |  |  | 63.6 | ED50 [3, 6]: 0.11 mg/kg |
| Nc1n[nH]c(=O)nc1NC/C=C/COc1cc(CN2CCCCC2)ccn1 [compound 30, 6-amino-5-[4-<4-(1-piperidinomethyl)pyridyl-2-oxy>trans-2-butenylamino]-1,2,4-triazin-3-one] |  |  | 26.9 | ED50 [3, 6]: 0.26 mg/kg |
| NC1=NS(=O)(=O)N=C1NC/C=C\COc1cc(CN2CCCCC2)ccn1 [Ex. 13, 3-amino-4-[4-<4-(1-piperidinomethyl)pyridyl-2-oxy>-cis-2-butenylamino]-1,2,5-thiadiazole-1,1-dioxide] | 708 | 84 | 14.0 | ED50 [3, 6]: 0.5 mg/kg |
| 5-dimethylaminomethylbenzyl-2-[4-<6-(1-pipelidinomethyl)pyridyl-2-oxy>-cis-2-butenylamino]-1H-pyrimidin-4-one [Ex. 45] |  |  |  | Secretion of Gastric Acid in Rat, Inhibition Rate (%) ([1]; 0.2 mg/kg SC, histamine 3 mg/kg SC, average of five runs): 36% |
| Nc1cc(NC/C=C\COc2cc(CN3CCCCC3)ccn2)[nH]c(=O)n1 [Ex. 26, 4-amino-6-[4-<4-(1-piperidinomethyl)pyridyl-2-oxy>-cis-2-butenylamino]-1H-pyrimidin-2-one] | 263 | 83 |  |  |
| O=c1nc(NC/C=C\COc2cc(CN3CCCCC3)ccn2)[nH]nc1Cc1cccnc1 [Ex. 25, 3-[4-<4-(1-piperidinomethyl)pyridyl-2-oxy>-cis-2-butenylamino]-6-(3-pyridylmethyl)-1,2,4-triazin-5-one] | 170 | 55 | 50.0 | ED50 [3, 6]: 0.14 mg/kg |
| Nc1nsnc1NC/C=C\COc1cc(CN2CCCCC2)ccn1 [Ex. 15, 3-amino-4-[4-<4-(1-piperidinomethyl)pyridyl-2-oxy>-cis-2-butenylamino]-1,2,5-thiadiazole] | 35.5 | 61 | 18.4 | ED50 [3, 6]: 0.38 mg/kg; antagonistic actions against Histamine H2 -receptor (in words) ([2]; isolated right atria of guinea pigs): strong |
| CN(C)Cc1cccc(Cc2c[nH]c(NC/C=C\COc3cc(CN4CCCCC4)ccn3)nc2=O)c1 [Ex. 23, 5-(3-dimethylaminomethylbenzyl)-2-[4-<4-(1-piperidinomethyl)pyridyl-2-oxy>-cis-2-butenylamino]-1H-pyrimidin-4-one] | 1550 | 36 |  |  |
| CN/C(=N/CCSCc1nc[nH]c1C)NC#N [Cimetidine, reference compound] |  |  |  | ED50 ([3]; read-out: Median effective dose (ED50) inhibiting Gastric Acid Section (95% Reliability Limit), intraduodenal, 30 minutes before histamine SC, first series (Table 2-1)): 7 mg/kg; ED50 ([3]; read-out: Median effective dose (ED50) inhibiting Gastric Acid Section (95% Reliability Limit), intraduodenal, 30 minutes before histamine SC, second series (Table 2-2)): 8.2 mg/kg; inhibition in vivo at 2 mg/kg ([1]; Rattus norvegicus, sc, read-out: Secretion of Gastric Acid in Rat, Inhibition Rate (%)): 72% |
| CNc1n[s+]([O-])nc1NC/C=C\COc1cc(CN2CCCCC2)ccn1 (stereo not drawn) [Ex. 8, 3-methylamino-4-[4-<4-(1-piperidinomethyl)pyridyl-2-oxy>-cis-2-butenylamino]-1,2,5-thiadiazole-1-oxide] | 490 | 85 |  |  |
| CN(C)Cc1ccnc(OC/C=C\CNc2nc(=O)[nH]nc2N)c1 [compound 31, 6-amino-5-<4-(4-dimethylaminomethylpyridyl-2-oxy)-cis-2-butenylamino>-1,2,4-triazin-3-one] |  |  | 25.0 | ED50 [3, 6]: 0.28 mg/kg |
| CN(C)Cc1ccnc(OC/C=C\CNc2c(N)c(=O)c2=O)c1 [Ex. 3, 1-amino-2-<4-(4-dimethylaminomethylpyridyl-2-oxy)-cis-2-butenylamino>-1-cyclobuten-3,4-dione] | 468 | 52 |  |  |

Second part, led by results:

| Kb [2] [nM] | Compound | inhibition in vivo at 0.2 mg/kg [1, 4] [%] | Efficacy Ratio relative to Cimetidine (Cimetidine = 1) [3] | further results |
| --- | --- | --- | --- | --- |
| 1910 | Cn1nc(N)nc1NC/C=C\COc1cccc(CN2CCCCC2)n1 [Ex. 41, 3-amino-1-methyl-5-[4-<6-(1-piperidinomethyl)pyridyl-2-oxy>-cis-2-butenylamino]-1H-1,2,4-triazole] | 32 |  |  |
| 263 | NC1=NS(=O)(=O)N=C1NC/C=C\COc1cccc(CN2CCCCC2)n1 [Ex. 36, 3-amino-4-[4-<6-(1-piperidinomethyl)pyridyl-2-oxy>-cis-2-butenylamino]-1,2,5-thiadiazole-1,1-dioxide] | 72 | 41.0 | ED50 [3, 5]: 0.2 mg/kg |
| 1700 | Nc1n[nH]c(=O)nc1NC/C=C\COc1cccc(CN2CCCCC2)n1 [Ex. 49, 6-amino-5-[4-<6-(1-piperidinomethyl)pyridyl-2-oxy<-cis-2-butenylamino]-1,2,4-triazin-3-one] | 45 |  |  |
| 661 | CNc1c(NC/C=C\COc2cccc(CN3CCCCC3)n2)c(=O)c1=O [Ex. 33, 1-methylamino-2-[4-<6-(1-piperidinomethyl)pyridyl-2-oxy>-cis-2-butenylamino]-1-cyclobuten-3,4-dione] | 34 |  |  |
| 1100 | CNc1n[s+]([O-])nc1NC/C=C\COc1cccc(CN2CCCCC2)n1 (stereo not drawn) [Ex. 35, 3-methylamino-4-[4-<6-(1-piperidinomethyl)pyridyl-2-oxy>-cis-2-butenylamino]-1,2,5-thiadiazole-1-oxide] | 74 |  |  |
| 933 | Nc1n[s+]([O-])nc1NC/C=C\COc1cccc(CN2CCCCC2)n1 (stereo not drawn) [Ex. 34, 3-amino-4-[4-<6-(1-piperidinomethyl)pyridyl-2-oxy>-cis-2-butenylamino]-1,2,5-thiadiazole-1-oxide] | 81 |  |  |
| 490 | Nc1c(NC/C=C\COc2cccc(CN3CCCCC3)n2)c(=O)c1=O [Ex. 32, 1-amino-2-[4-<6-(1-piperidinomethyl)pyridyl-2-oxy>-cis-2-butenylamino]-1-cyclobuten-3,4-dione] | 33 | 32.8 | ED50 [3, 5]: 0.25 mg/kg |
| 1550 | Nc1nnc(NC/C=C\COc2cccc(CN3CCCCC3)n2)s1 [Ex. 39, 2-amino-5-[4-<6-(1-piperidinomethyl)pyridyl-2-oxy>-cis-2-butenylamino]-1,3,4-thiadiazole] | 36 |  |  |
| 617 | CN(C)Cc1c[nH]c(NC/C=C\COc2cccc(CN3CCCCC3)n2)nc1=O [Ex. 43, 5-dimethylaminomethyl-2-[4-<6-(1-piperidinomethyl)pyridyl-2-oxy>-cis-2-butenylamino]-1H-pyrimidin-4-one] | 44 |  |  |
